Laboratory results: US4268680A, “Heterocyclic derivatives of 1-(1,3-dioxolan-2-ylmethyl)-1H-imidazoles and 1H-1,2,4-triazoles” (Janssen Pharmaceutica N.V., priority 1979, dated 1981)

Tested on: Candida albicans
Assay: Experiment B: Activity of compounds (I) against crop candidosis in turkeys
Assay type: in vivo
Settings: Table II; medicated feed for 13 consecutive days; crops of 50% of the animals completely negative for Candida albicans
Description: Experiment B: Activity of compounds (I) against crop candidosis in turkeys. Turkeys of 14 days old were infected in the crop with 4.10^6 Candida albicans cells, grown on Sabouraud broth for 48 hours at 37° C. and diluted with saline. The volume of the inoculum was 1 ml. The drug under investigation were premixed in 500 mg of lacton and thereafter admixed in 1000 g of meal without any additives. The concentration of the drug under investigation in the meal was expressed in mg/kg. The animals were given the medicated feed for 13 consecutive days starting on the day of infection. At the end of the experiment all animals were sacrificed. At autopsy the crops were removed, emptied and grinded in an ultra-turrax mixer in 15 ml of sterile saline. Colony counting was done on Sabouraud agar and the results given in Tables I and II represent the ED50, i.e., the dose of the drug whereby the crops of 50% of the animals were completely negative for Candida albicans.

`Clc1ccc(C2(Cn3cncn3)OCC(COc3ccc(-n4ccnc4)cc3)O2)c(Cl)c1` (stereo not shown) was tested, and the “Crop candidosis in Turkeys: EO50 in mg/kg in feed” value was 8 mg/kg in feed.
